Measured values reported in patent publication US10913224B2, “Ophthalmic devices for delivery of hydrophobic comfort agents” (Novartis AG, priority 2008, dated 2021).
Where “and” joins values, the source holds several entries; their conditions need not be identical. Equal entries are not always repeated.

Legend:
Assay type in all cases: physicochemical
[1] = Second release test: lens left in ATF for 8 hrs, DMPC in ATF; conditions: second test: 1 mL ATF, 35° C., 3 pooled ATF samples, just below dynamic range of the assay
Protocol: Lenses (as prepared in Example 3) are subjected to one of two release tests in artificial tear fluid (ATF) prepared without any phospholipids and having a composition shown in Table 1. The second test is designed to try to maximize the amount of DM PC in ATF by leaving the lens in ATF for the entire release test. A single lens is placed in 1 mL ATF and incubated at 35° C. for 8 hrs. Every 30 min, the sample is vortexed and then returned to the incubator. At the conclusion of 8 hrs, the lens is removed from the ATF and the ATF is submitted for analysis. All analysis is done using an enzymatic assay method. Three ATF samples are pooled to increase the DMPC signal. […] The value for the 3 pooled samples is just below the dynamic range of the assay, making confidence in the quantified DMPC levels difficult yet still providing evidence of DMPC release from the lenses.

[2] = Total content of radio-labeled DMPC in lenses (extraction, scintillation counting); conditions: radio labeled DMPC (C14) loaded from 1-propanol
Protocol: (§1) Lenses are prepared according to the procedures described in Example 3, except that DMPC used in this example is a radio labeled DMPC (C14). The radio labeled DMPC is supplied by New England Nuclear (Waltham, Mass.). Lenses are loaded with radio-labeled DMPC by dipping the lenses into a solution of the radio-labeled DMPC in 1-propanol. Loaded lenses are then subjected to release testing using artificial tear fluid (ATF) as the release media. Components listed in Table 2 are dissolved in a phosphate buffered saline solution to provide a physiologically acceptable pH and osmolality.
The DMPC content of the lenses is also measured using one of two techniques: • (1) Lenses that had previously been subjected to release testing are fully extracted and the eluate is then analyzed for DMPC content. This amount of DMPC is numerically added to the DMPC already quantified in the release media. Thus, all DMPC is accounted for, cradle-to-grave. • (2) Other lenses, not subject to release testing, are also extracted to determine initial DMPC content (total loading of DM PC in lenses).

[3] = First release test: lens in artificial tear fluid (ATF) refreshed every 30 min, DMPC left in lens; conditions: first test: 500 μL ATF replaced every 30 min, 35° C., 8 hrs, n=5
Protocol: Lenses (as prepared in Example 3) are subjected to one of two release tests in artificial tear fluid (ATF) prepared without any phospholipids and having a composition shown in Table 1. The first test is designed to maximize release of DMPC from the lens by refreshing the ATF frequently. A single lens is placed in 500 μL of ATF and incubated at 35° C. for 8 hrs. Every 30 min, the sample is vortexed, the ATF is withdrawn, a fresh 500 μL aliquot of ATF is added to the lens, the sample is again vortexed, and the sample is returned to the incubator. At the conclusion of 8 hrs, the lenses are removed from ATF, placed in 1 mL clean PBS, and submitted for analysis of DMPC content. The second test is designed to try to maximize the amount of DM PC in ATF by leaving the lens in ATF for the entire release test. A single lens is placed in 1 mL ATF and incubated at 35° C. for 8 hrs. Every 30 min, the sample is vortexed and then returned to the incubator. At the conclusion of 8 hrs, the lens is removed from the ATF and the ATF is submitted for analysis. All analysis is done using an enzymatic assay method.

[4] = Control lenses: DMPC loading of Example 3 lenses (enzymatic assay); conditions: control lenses of Example 3, no release test, n=5
Source text: Lenses are demolded and extracted with an organic solvent (e.g., isopropanol, 1-propanol, Dowanol, methyl ethyl ketone (MEK), or the like) and then dipped in a Dowanol PM (or alternatively MEK or 1-propanol) solution of polyacrylic acid (0.1% by weight, pH ˜2.0). The lenses are then rinsed for 60 seconds in water and then dipped in a Dowanol (or alternatively MEK or 1-propanol) solution of 1,2-dimyristoyl-sn-glycero-3-phosphocholine (DMPC, 1%) for about 60 to about 100 seconds. The lenses are then rinsed in water for 120 seconds and packaged in PBS. Lenses are then autoclaved for 30 min at 121° C. The second test is designed to try to maximize the amount of DM PC in ATF by leaving the lens in ATF for the entire release test. A single lens is placed in 1 mL ATF and incubated at 35° C. for 8 hrs. Every 30 min, the sample is vortexed and then returned to the incubator. At the conclusion of 8 hrs, the lens is removed from the ATF and the ATF is submitted for analysis. All analysis is done using an enzymatic assay method. A control set of lenses is submitted to confirm loading of the lenses with DMPC. This control sample set (n=5) show an average loading of 200 μg DMPC per lens.

[5] = Release of radio-labeled DMPC from lens into ATF over 24 hours (scintillation counter); conditions: 1 mL ATF, radio labeled DMPC (C14)
Protocol: as §1
Release tests are conducted by placing a single lens in 1 mL of ATF and then incubating the sample for 24 hours. At specified time points of 0, 2, 4, 10, and 24 hours, small samples of release media are pulled and analyzed for DM PC content using a scintillation counter (C14 emits a weak beta particle).

[6] = Release of DMPC from pooled Example 6 lenses into ATF, 24 hours, HPLC; conditions: pooled lenses (35 lenses in 3.5 mL ATF and 50 lenses in 5 mL ATF), 37° C.
Protocol: The release profile of contact lenses with comfort agents (DMPC and L-PEG) are determined as follows. Lenses are placed in release media (artificial tear fluid (ATF) as described in Example 4) for release testing. Lenses are pooled (35 lenses in 3.5 mL ATF and 50 lenses in 5 mL ATF) and then gently agitated at 37° C. for 24 hours. At the conclusion of the 24-hour release study, the lenses are removed from the ATF. The remaining ATF is then transferred to centrifuge tubes and dried overnight under vacuum in a centrifugal evaporator.
The dried residue from the ATF is then resuspended in 1-propanol (1 mL 1-propanol for each original 5 mL ATF) using sonication to assist in resuspension. The resulting solution is analyzed for presence of DMPC using HPLC.

[7] = Comfort agent content of Example 6 lenses (exhaustive isopropanol extraction); conditions: comfort agent added to lens formulation, after autoclave
Protocol: A lens formulation is prepared as detailed in Example 3 where 1,2-dimyristoyl-sn-glycero-3-phosphocholine (DMPC) is added to the formulation at a concentration of 0.75% by weight and where the formulation solvent, 1-propanol, is reduced to 22.65% by weight. Lens curing is as described in Example 3. The lenses are demolded and then extracted in methyl ethyl ketone followed by a rinse in DI water for 56 seconds. The lenses are then dipped in a solution of polyacrylic acid (0.36% wt/vol in 1-propanol, pH-2). The lenses are then rinsed in water for 120 seconds and packaged in phosphate buffered saline. Lenses are then autoclaved for 30 minutes at 121° C. The content of comfort agents, DMPC and L-PEG, are determined as follows. Lenses are exhaustively extracted in isopropanol and the extract is tested for DMPC and N-(carbonyl-methoxypolyethylene glycol-2000)-1,2-disteaoyl-sn-glycero-3-phosphoethanolamine, sodium salt (L-PEG-2000) content. Lenses contain on average 30 μg DMPC and 10 μg L-PEG-2000 per lens.

DMPC in the ATF equivalent per lens [1] [μg DM PC per lens]	total DMPC content of the lenses [2]	average DMPC content of lens after release [3] [μg DMPC per lens]	average loading of DMPC per lens [4] [μg DMPC per lens]	average cumulative DMPC release from the lens ([5]; 24-hour test period, eight samples) [µg]	Molecule	DMPC release order ([5]; 0-24 hours)	DMPC in ATF after release [6]	average content per lens [7] [μg per lens]
6	32.1±2.7 micrograms of DMPC per lens	177	200	1.3	CCCCCCCCCCCCCC(=O)OC[C@H](COP(=O)([O-])OCC[N+](C)(C)C)OC(=O)CCCCCCCCCCCCC [DMPC, 1,2-dimyristoyl-sn-glycero-3-phosphocholine]	first order	0.48 μg per mL ATF and 0.69 μg per mL ATF	30
					N-(carbonyl-methoxypolyethylene glycol-2000)-1,2-distearoyl-sn-glycero-3-phosphoethanolamine sodium salt [L-PEG-2000]			10
